Data taken from patent US7235267B1, “Brain cell or nerve cell-protecting agents comprising medicinal ginseng” (priority 1999, dated 2007).
“Also recorded” adds a separate entry of the source. Read-outs that look alike come from different tables or passages of the source.

What was measured:
[1] = system: Bcl-xL mRNA; assay: RT-PCR of Bcl-xL mRNA in cerebral cortex after intravenous ginsenoside Rb1; format: in vivo, rat; conditions: intravenous 60 μg/day; 4th and 6th hour after MCA permanent occlusion; vs sham and saline
Method: The present inventors investigated whether or not intravenous administration of low doses of ginsenoside Rb1 increases expression of Bcl-xL mRNA in brain tissues. For this purpose, for example, SH-SP rats (body weight 250-300 g), at the age of 12 weeks, were used. Immediately after permanent occlusion of the MCA in SH-SP rats under inhalation anesthesia, ginsenoside Rb1 dissolved in physiological saline was infused once intravenously (60 μg), and subsequently ginsenoside Rb1 was intravenously infused continuously at the dose of 60 μg/day. Control animals with MCA permanent occlusion and sham-operated animals received the same amount of physiological saline after MCA permanent occlusion.
Group 2 consists of animals with the same experimental conditions. Sham indicates sham-operated animals; Rb1(−) indicates animals with cerebral infarction administered with physiological saline; and Rb1(+) indicates animals with cerebral infarction administered intravenously with ginsenoside Rb1. At the 4th hour or the 6th hour after the sham operation and MCA permanent occlusion, animals were anesthetized with chloral hydrate, and the left cerebral cortex (i.e. the cerebral cortex on the side of MCA permanent occlusion) was dissected out and total RNA was prepared for RT-PCR. The mRNA of β-actin was used as the internal standard. […]

[2] = system: Bcl-xL; assay: Bcl-xL expression in primary cultured myocardial cells (RT-PCR, immunoblotting); format: cell-based, rat
Method: Next, we have studied effect of ginsenoside Rb1 on the heart. For that purpose, for example, changes in the expression of Bcl-xL mRNA and Bcl-xL protein were examined with RT-PCR and immunoblotting, when primary cultured myocardial cells were cultured for 18 hours in the presence of ginsenoside Rb1. Myocardial cells were prepared as follows. The hearts of fetal rats at gestational day 17 were treated with trypsin EDTA to prepare dispersed cells, which were cultured for several days in DMEM containing 10% FCS (fetal calf serum). In RT-PCR, β-actin mRNA was used as the internal standard. In the immunoblotting, troponin T, a striated muscle-specific protein, was used as the internal standard, and expression of Bcl-xL protein was examined. In the immunoblotting, the same experiments were repeated 10 times by using different lots of myocardial cells, and Bcl-xL immunoreaction-positive bands were analyzed by densitometry and statistical analysis was performed.
Subsequently we studied the effectiveness of ginsenoside Rb1 on heart. For that purpose, for example, changes in the expressions of Bcl-xL mRNA and Bcl-xL protein were examined with the use of RT-PCR and immunoblotting, when the primary cultured myocardial cells were cultured for 18 hours in the presence of ginsenoside Rb1. Myocardial cells were prepared as follows. The hearts of fetal rats at gestational day 17 were treated with trypsin EDTA to prepare the dispersed cells, which were cultured for several days in DMEM containing 10% FCS (fetal calf serum). In RT-PCR, β-actin mRNA was used as the internal standard. In the immunoblotting, troponin T, a striated muscle-specific protein, was used as the internal standard, and expression of Bcl-xL protein was examined. In the immunoblotting, the same experiments were repeated 10 times by using different lots of myocardial cells, and Bcl-xL immunoreaction-positive bands were analyzed by densitometry and statistical analysis was performed.

[3] = system: ischemic brain; assay: Oral administration of ginsenoside Rb1 per se, neuroprotective action; format: in vivo
[4] = system: gerbils with transient forebrain ischemia (hippocampal CA1 neurons); conditions: cited from earlier work
[5] = system: SH-SP rats with MCA permanent occlusion; conditions: cited from earlier work
[6] = system: rats with ischemia/reperfusion or permanent occlusion of the middle cerebral artery; conditions: cited from earlier work
[7] = low concentrations or low doses; cited from earlier work

CC(C)=CCC[C@](C)(O[C@@H]1O[C@H](CO[C@@H]2O[C@H](CO)[C@@H](O)[C@H](O)[C@H]2O)[C@@H](O)[C@H](O)[C@H]1O)[C@H]1CC[C@]2(C)[C@@H]1[C@H](O)C[C@@H]1[C@@]3(C)CC[C@H](O[C@@H]4O[C@H](CO)[C@@H](O)[C@H](O)[C@H]4O[C@@H]4O[C@H](CO)[C@@H](O)[C@H](O)[C@H]4O)C(C)(C)[C@@H]3CC[C@]12C [ginsenoside Rb1]
expressions of Bcl-xL mRNA in the cerebral cortex [1]: obviously increased
expression of Bcl-xL protein in myocardial cells ([2]; 1 fg/ml to 10^4 fg/ml, 18 hours, n=10): significantly enhanced
expression of Bcl-xL mRNA in myocardial cells ([2]; 1 fg/ml-100 fg/ml, 18 hours): obviously increased
concentrations increasing Bcl-xL mRNA in myocardial cells ([2]; FIG. 25): 1 to 100 fg/mL
neuroprotective action / protective action on the ischemic brain [3]: did not show protective effects; also recorded: did not exhibit neuroprotective action; also recorded: did not exhibit any protective action
delayed neuronal death and learning disability ([4]; intracerebroventricular infusion immediately after 3 or 3.5 minute occlusion): suppressed
delayed neuronal death and learning disability ([4]; intraperitoneal 10 or 20 mg/kg once a day for one week in advance of 5-minute occlusion): significantly prevent
nerve cells in the hippocampal CA1 area rescued ([4]; intraperitoneal 10 or 20 mg/kg/day before cerebral ischemia): approximately 30%
effect on delayed neuronal death ([4]; intraperitoneal immediately after 3- or 5-minute occlusion of common carotid arteries): no effect
cerebral infarction (infarcted area in the cerebral cortex) ([5]; intracerebroventricular administration after permanent MCA occlusion): significant reduction
secondary lesion (degeneration) of the thalamus ([5]; intravenous 6 or 60 μg/day): significantly inhibits
mean ratio of cerebrocortical infarction compared with saline group ([5]; intravenous ginsenoside Rb1 (prior applications)): ≤ 50%
cerebral vessels destroyed after MCA permanent occlusion ([5]; intravenous infusion for 28 days): regenerated and reconstructed
cerebral infarct area relative to non-administered group ([5]; repetitive or continuous intravenous 6 μg or 60 μg/day): about ¼
volume/size of cerebral infarct lesion relative to saline (non-administered) group ([5]; repetitive or continuous intravenous 6 or 60 μg/day for 28 days after MCA permanent occlusion (prior applications)): about ¼
reduction of the volume of the cerebral infarct lesions vs control group ([5]; repetitive or continuous intravenous low doses after permanent MCA occlusion): ~75%
effect on infarction ([6]; intravenous 10 mg/kg before permanent occlusion of the middle cerebral artery): absolutely no effect
reduction of size of the infarction vs control ([6]; intravenous 40 mg/kg before permanent occlusion of the middle cerebral artery): about 14%
reduction of infarction size vs control ([6]; single intravenous 10-40 mg/kg after the reperfusion): 12%-35%
reduction of infarction size vs control ([6]; single intravenous 10-40 mg/kg before ischemia, ischemia/reperfusion model): 20%-49%
bleeding tendency [7]: does not promote
